Series [1] addresses T1, Human ADA (Homo sapiens, UniProt P00813).
T1 construct: made in house; host or cells: ADA-deficient bacterial strain
T1 sequence (P00813 1-363): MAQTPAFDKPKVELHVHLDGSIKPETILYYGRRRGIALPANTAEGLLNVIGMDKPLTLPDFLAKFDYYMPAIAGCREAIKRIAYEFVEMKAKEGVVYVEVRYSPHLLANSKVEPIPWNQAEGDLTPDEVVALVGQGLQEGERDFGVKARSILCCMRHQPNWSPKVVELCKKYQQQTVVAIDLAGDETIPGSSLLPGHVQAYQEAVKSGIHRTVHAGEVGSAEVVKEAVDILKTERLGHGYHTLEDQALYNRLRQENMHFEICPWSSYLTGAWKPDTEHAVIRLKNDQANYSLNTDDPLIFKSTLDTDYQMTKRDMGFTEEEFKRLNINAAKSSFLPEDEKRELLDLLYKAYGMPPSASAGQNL
The series can be described thus: Adenosine deaminase (ADA) enzyme assay [1], Ki by Dixon plot. Format: biochemical. The note with it: 25 mU/ml ADA, varying concentrations of adenosine, 10 mM phosphate buffer saline pH 7.4, room temperature, A265 for 5 minutes. How it is done:
The reaction velocity (V) is measured by a change in absorbance at 265 nm (A265) resulting from the deamination of adenosine. Human ADA was expressed and purified from ADA-deficient bacterial strain. Reaction mixtures in a total volume of 200 μl contained 25 mU/ml of ADA and varying concentrations of adenosine and test compounds in 10 mM phosphate buffer saline (pH 7.4). The reaction was started by addition of ADA to a mixture of adenosine and test compound. The reaction was followed at room temperature by recording decrease in A265 for 5 minutes in SPECTRAmax 250 (Molecular Devices, USA) to automatically calculate Vmax. The inhibition constant (Ki) values of test compounds were determined by Dixon plot.

The target in series [2] is T1, Human ADA. The series can be described thus: Adenosine deaminase (ADA) enzyme assay [2], IC50 of Vmax inhibition. It is filed as biochemical. On the procedure:
Human ADA was expressed and purified from ADA-deficient bacterial strain. Reaction mixture of a total volume of 200 μl contained 0.16 μg/ml of ADA, 0.1 mM of adenosine and test compound in 10 mM phosphate buffer saline (pH 7.4). The reaction was started by addition of ADA to a mixture of adenosine and test compound.

With `NC(=O)c1cn([C@@H](CO)CCn2ccc3ccc(NC(=O)CCCc4ccccc4)cc32)cn1` [Example 6-(2), 1-[(R)-1-Hydroxy-4-(6-(4-phenylbutyrylamino)indol-1-yl)-2-butyl]imidazole-4-carboxamide], affinity on Human ADA [1] was put at a Ki of 16 nM.
At Human ADA [2], `C[C@H](O)[C@@H](CCc1cccc2ccccc12)n1cncn1` [Compound A, 1-[(2S,3R)-2-Hydroxy-5-(1-naphthyl)-3-pentyl]-1,2,4-triazole] yielded an IC50 of 27 nM.
As to `NC(=O)c1cn([C@@H](CO)CCn2ccc3ccccc32)cn1` [Example 2, 1-[(R)-1-hydroxy-4-(1-indolyl)-2-butyl]imidazole-4-carboxamide], the melting point was 127 to 130 °C.

One may read the Ki as a measure of affinity in units of concentration, obtained from inhibition or displacement. The low end stands for tighter binding, the high end for weaker binding. A word on the IC50: it is the point on the concentration scale where inhibition reaches its midpoint. High values mean weaker potency in that assay, low ones greater potency in that assay. The melting point is the temperature of the solid-liquid transition.

Source of the values: patent US6596738B1, “Heterocyclic compound, composition and method for inhibiting adenosine deaminase” (Fujisawa Pharmaceutical Co., Ltd., priority 1999, dated 2003).
